From ChEMBL document CHEMBL1151010, “A case study of combinatorial libraries: Endothelin receptor antagonist hexapeptides” (Bioorg Med Chem Lett, 1995)
pIC50: −log10 of the molar value. Square brackets hold non-standard residues; d marks the D form. Peptide text beside a SMILES is read from it. dGly(5-dibenzosuberyl) = N[C@@H](C(=O)O)C1c2ccccc2CCc2ccccc21

Each compound was assayed against T1, Endothelin-1 receptor (Sus scrofa) (UniProt Q29010) (assay: Inhibition of endothelin (ET-A) binding to porcine heart membranes). Settings: Membrane, concentration not given here.
T1 sequence (whole entry): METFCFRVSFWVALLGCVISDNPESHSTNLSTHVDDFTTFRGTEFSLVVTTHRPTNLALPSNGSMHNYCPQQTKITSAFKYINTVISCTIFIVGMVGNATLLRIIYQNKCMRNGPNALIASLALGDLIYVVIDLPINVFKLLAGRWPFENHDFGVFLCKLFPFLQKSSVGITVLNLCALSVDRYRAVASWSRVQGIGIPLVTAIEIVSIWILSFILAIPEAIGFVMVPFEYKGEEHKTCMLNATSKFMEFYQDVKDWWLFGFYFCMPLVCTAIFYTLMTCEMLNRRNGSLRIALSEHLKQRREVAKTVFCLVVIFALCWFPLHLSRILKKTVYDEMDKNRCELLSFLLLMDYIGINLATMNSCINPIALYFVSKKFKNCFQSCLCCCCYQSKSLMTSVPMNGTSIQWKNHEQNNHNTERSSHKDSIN
Parameters: concentration or dose not given beside the values

inhibition [%] | Compound
12 | CC[C@H](C)[C@H](NC(=O)[C@@H](NC(=O)[C@H](CC(=O)O)NC(=O)[C@H](CC(C)C)NC(=O)[C@H](NC(C)=O)C1c2ccccc2CCc2ccccc21)[C@H](C)O)C(=O)N[C@@H](Cc1c[nH]c2ccccc12)C(=O)O
12 | CC[C@H](C)[C@H](NC(=O)[C@H](CCC(N)=O)NC(=O)[C@H](CC(=O)O)NC(=O)[C@H](CC(C)C)NC(=O)[C@H](NC(C)=O)C1c2ccccc2CCc2ccccc21)C(=O)N[C@@H](Cc1c[nH]c2ccccc12)C(=O)O
9 | CC[C@H](C)[C@H](NC(=O)[C@H](CC(C)C)NC(=O)[C@H](CC(=O)O)NC(=O)[C@H](CC(C)C)NC(=O)[C@H](NC(C)=O)C1c2ccccc2CCc2ccccc21)C(=O)N[C@@H](Cc1c[nH]c2ccccc12)C(=O)O
9 | CC[C@H](C)[C@H](NC(=O)[C@H](Cc1ccc(O)cc1)NC(=O)[C@H](CC(=O)O)NC(=O)[C@H](CC(C)C)NC(=O)[C@H](NC(C)=O)C1c2ccccc2CCc2ccccc21)C(=O)N[C@@H](Cc1c[nH]c2ccccc12)C(=O)O
0 | CC[C@H](C)[C@H](NC(=O)[C@H](CCCCN)NC(=O)[C@H](CC(=O)O)NC(=O)[C@H](CC(C)C)NC(=O)[C@H](NC(C)=O)C1c2ccccc2CCc2ccccc21)C(=O)N[C@@H](Cc1c[nH]c2ccccc12)C(=O)O
0 | CC[C@H](C)[C@H](NC(=O)[C@H](CCC(=O)O)NC(=O)[C@H](CC(=O)O)NC(=O)[C@H](CC(C)C)NC(=O)[C@H](NC(C)=O)C1c2ccccc2CCc2ccccc21)C(=O)N[C@@H](Cc1c[nH]c2ccccc12)C(=O)O
0 | CC[C@H](C)[C@H](NC(=O)[C@H](CC(=O)O)NC(=O)[C@H](CC(=O)O)NC(=O)[C@H](CC(C)C)NC(=O)[C@H](NC(C)=O)C1c2ccccc2CCc2ccccc21)C(=O)N[C@@H](Cc1c[nH]c2ccccc12)C(=O)O
12 | CC[C@H](C)[C@H](NC(=O)[C@H](Cc1ccccc1)NC(=O)[C@H](CC(=O)O)NC(=O)[C@H](CC(C)C)NC(=O)[C@H](NC(C)=O)C1c2ccccc2CCc2ccccc21)C(=O)N[C@@H](Cc1c[nH]c2ccccc12)C(=O)O (Ac-[dGly(5-dibenzosuberyl)]LDFIW-OH)
0 | CC[C@H](C)[C@H](NC(=O)[C@H](CCCN=C(N)N)NC(=O)[C@H](CC(=O)O)NC(=O)[C@H](CC(C)C)NC(=O)[C@H](NC(C)=O)C1c2ccccc2CCc2ccccc21)C(=O)N[C@@H](Cc1c[nH]c2ccccc12)C(=O)O
12 | CC[C@H](C)[C@H](NC(=O)[C@H](Cc1c[nH]cn1)NC(=O)[C@H](CC(=O)O)NC(=O)[C@H](CC(C)C)NC(=O)[C@H](NC(C)=O)C1c2ccccc2CCc2ccccc21)C(=O)N[C@@H](Cc1c[nH]c2ccccc12)C(=O)O
0 | CC[C@H](C)[C@H](NC(=O)[C@H](Cc1c[nH]c2ccccc12)NC(=O)[C@H](CC(=O)O)NC(=O)[C@H](CC(C)C)NC(=O)[C@H](NC(C)=O)C1c2ccccc2CCc2ccccc21)C(=O)N[C@@H](Cc1c[nH]c2ccccc12)C(=O)O

More lines, now with the values behind:

Compound | inhibition [%]
CC[C@H](C)[C@H](NC(=O)[C@H](CC(=O)O)NC(=O)[C@H](CC(C)C)NC(=O)[C@H](NC(C)=O)C1c2ccccc2CCc2ccccc21)C(=O)N[C@H](C(=O)N[C@@H](Cc1c[nH]c2ccccc12)C(=O)O)[C@@H](C)CC (Ac-[dGly(5-dibenzosuberyl)]LDIIW-OH) | 62
CC[C@H](C)[C@H](NC(=O)[C@@H]1CCCN1C(=O)[C@H](CC(=O)O)NC(=O)[C@H](CC(C)C)NC(=O)[C@H](NC(C)=O)C1c2ccccc2CCc2ccccc21)C(=O)N[C@@H](Cc1c[nH]c2ccccc12)C(=O)O | 0

These compounds were tested against T2, Endothelin-1 receptor (Sus scrofa, UniProt Q29010) (assay: Antagonist activity against ET-A from porcine heart membranes). Settings: not given.
T2 sequence (Q29010 whole entry): T1 sequence (whole entry)
Format: functional, tissue-based

pIC50 | Compound
7.68 | CC[C@H](C)[C@H](NC(=O)[C@H](CC(=O)O)NC(=O)[C@@H](NC(=O)[C@H](NC(C)=O)C1c2ccccc2CCc2ccccc21)[C@@H](C)CC)C(=O)N[C@H](C(=O)N[C@@H](Cc1c[nH]c2ccccc12)C(=O)O)[C@@H](C)CC
8.22 | CC[C@H](C)[C@H](NC(=O)[C@H](CC(=O)O)NC(=O)[C@H](CO)NC(=O)[C@H](NC(C)=O)C1c2ccccc2CCc2ccccc21)C(=O)N[C@H](C(=O)N[C@@H](Cc1c[nH]c2ccccc12)C(=O)O)[C@@H](C)CC
8.30 | CC[C@H](C)[C@H](NC(=O)[C@@H](NC(=O)[C@H](CC(=O)O)NC(=O)[C@H](CC(C)C)NC(=O)[C@H](NC(C)=O)C1c2ccccc2CCc2ccccc21)C(C)(C)C)C(=O)N[C@@H](Cc1c[nH]c2ccccc12)C(=O)O
8.40 | CC[C@H](C)[C@H](NC(=O)[C@@H](NC(=O)[C@H](CC(=O)O)NC(=O)[C@H](CC(N)=O)NC(=O)[C@H](NC(C)=O)C1c2ccccc2CCc2ccccc21)C(C)C)C(=O)N[C@@H](Cc1c[nH]c2ccccc12)C(=O)O
7.92 | CC[C@H](C)[C@H](NC(=O)[C@H](CC(=O)O)NC(=O)[C@@H](NC(=O)[C@H](NC(C)=O)C1c2ccccc2CCc2ccccc21)C(C)C)C(=O)N[C@H](C(=O)N[C@@H](Cc1c[nH]c2ccccc12)C(=O)O)[C@@H](C)CC
8.77 | CC[C@H](C)[C@H](NC(=O)[C@@H](NC(=O)[C@H](CC(=O)O)NC(=O)[C@H](CCC(N)=O)NC(=O)[C@H](NC(C)=O)C1c2ccccc2CCc2ccccc21)C(C)C)C(=O)N[C@@H](Cc1c[nH]c2ccccc12)C(=O)O
8.22 | CC[C@H](C)[C@H](NC(=O)[C@H](CC(=O)O)NC(=O)[C@H](C)NC(=O)[C@H](NC(C)=O)C1c2ccccc2CCc2ccccc21)C(=O)N[C@H](C(=O)N[C@@H](Cc1c[nH]c2ccccc12)C(=O)O)[C@@H](C)CC

The next lines start with the compound.

Compound | pIC50
CC[C@H](C)[C@H](NC(=O)[C@H](CC(=O)O)NC(=O)[C@H](CCSC)NC(=O)[C@H](NC(C)=O)C1c2ccccc2CCc2ccccc21)C(=O)N[C@H](C(=O)N[C@@H](Cc1c[nH]c2ccccc12)C(=O)O)[C@@H](C)CC | 8.10
CC[C@H](C)[C@H](NC(=O)[C@H](CC(=O)O)NC(=O)CNC(=O)[C@H](NC(C)=O)C1c2ccccc2CCc2ccccc21)C(=O)N[C@H](C(=O)N[C@@H](Cc1c[nH]c2ccccc12)C(=O)O)[C@@H](C)CC | 7.72
CC[C@H](C)[C@H](NC(=O)[C@H](CC(=O)O)NC(=O)[C@@H](NC(=O)[C@H](NC(C)=O)C1c2ccccc2CCc2ccccc21)[C@@H](C)O)C(=O)N[C@H](C(=O)N[C@@H](Cc1c[nH]c2ccccc12)C(=O)O)[C@@H](C)CC | 8.40
CC[C@H](C)[C@H](NC(=O)[C@H](CC(=O)O)NC(=O)[C@H](CC(N)=O)NC(=O)[C@H](NC(C)=O)C1c2ccccc2CCc2ccccc21)C(=O)N[C@H](C(=O)N[C@@H](Cc1c[nH]c2ccccc12)C(=O)O)[C@@H](C)CC | 8.52
CC[C@H](C)[C@H](NC(=O)[C@H](CC(=O)O)NC(=O)[C@H](Cc1ccc(O)cc1)NC(=O)[C@H](NC(C)=O)C1c2ccccc2CCc2ccccc21)C(=O)N[C@H](C(=O)N[C@@H](Cc1c[nH]c2ccccc12)C(=O)O)[C@@H](C)CC | 7.96
CC[C@H](C)[C@H](NC(=O)[C@H](CC(=O)O)NC(=O)[C@H](CC(=O)O)NC(=O)[C@H](NC(C)=O)C1c2ccccc2CCc2ccccc21)C(=O)N[C@H](C(=O)N[C@@H](Cc1c[nH]c2ccccc12)C(=O)O)[C@@H](C)CC | 7.96
CC[C@H](C)[C@H](NC(=O)[C@H](CC(=O)O)NC(=O)[C@H](Cc1c[nH]cn1)NC(=O)[C@H](NC(C)=O)C1c2ccccc2CCc2ccccc21)C(=O)N[C@H](C(=O)N[C@@H](Cc1c[nH]c2ccccc12)C(=O)O)[C@@H](C)CC | 7.30
CC[C@H](C)[C@H](NC(=O)[C@H](CC(=O)O)NC(=O)[C@H](CCCN=C(N)N)NC(=O)[C@H](NC(C)=O)C1c2ccccc2CCc2ccccc21)C(=O)N[C@H](C(=O)N[C@@H](Cc1c[nH]c2ccccc12)C(=O)O)[C@@H](C)CC (Ac-[dGly(5-dibenzosuberyl)]RDIIW-OH) | 8.52
CC[C@H](C)[C@H](NC(=O)[C@H](CC(=O)O)NC(=O)[C@H](CCC(N)=O)NC(=O)[C@H](NC(C)=O)C1c2ccccc2CCc2ccccc21)C(=O)N[C@H](C(=O)N[C@@H](Cc1c[nH]c2ccccc12)C(=O)O)[C@@H](C)CC | 8.70
CC[C@H](C)[C@H](NC(=O)[C@H](CC(=O)O)NC(=O)[C@H](Cc1c[nH]c2ccccc12)NC(=O)[C@H](NC(C)=O)C1c2ccccc2CCc2ccccc21)C(=O)N[C@H](C(=O)N[C@@H](Cc1c[nH]c2ccccc12)C(=O)O)[C@@H](C)CC | 7.96
CC[C@H](C)[C@H](NC(=O)[C@@H](NC(=O)[C@H](CC(=O)O)NC(=O)[C@H](CCC(N)=O)NC(=O)[C@H](NC(C)=O)C1c2ccccc2CCc2ccccc21)C(C)(C)C)C(=O)N[C@@H](Cc1c[nH]c2ccccc12)C(=O)O | 8.30
CC[C@H](C)[C@H](NC(=O)[C@H](CC(=O)O)NC(=O)[C@H](CCCCN)NC(=O)[C@H](NC(C)=O)C1c2ccccc2CCc2ccccc21)C(=O)N[C@H](C(=O)N[C@@H](Cc1c[nH]c2ccccc12)C(=O)O)[C@@H](C)CC | 8.40
CC[C@H](C)[C@H](NC(=O)[C@H](CC(=O)O)NC(=O)[C@H](CCC(=O)O)NC(=O)[C@H](NC(C)=O)C1c2ccccc2CCc2ccccc21)C(=O)N[C@H](C(=O)N[C@@H](Cc1c[nH]c2ccccc12)C(=O)O)[C@@H](C)CC (Ac-[dGly(5-dibenzosuberyl)]EDIIW-OH) | 7.96
CC[C@H](C)[C@H](NC(=O)[C@H](CC(=O)O)NC(=O)[C@H](Cc1ccccc1)NC(=O)[C@H](NC(C)=O)C1c2ccccc2CCc2ccccc21)C(=O)N[C@H](C(=O)N[C@@H](Cc1c[nH]c2ccccc12)C(=O)O)[C@@H](C)CC | 7.62
CC[C@H](C)[C@H](NC(=O)[C@H](CC(=O)O)NC(=O)[C@@H]1CCCN1C(=O)[C@H](NC(C)=O)C1c2ccccc2CCc2ccccc21)C(=O)N[C@H](C(=O)N[C@@H](Cc1c[nH]c2ccccc12)C(=O)O)[C@@H](C)CC | 8.22
